Results as given in patent US20100173937A1, “USE OF TETRAKIS-QUATERNARY AMMONIUM SALTS AS PAIN MODULATING AGENTS” (University of Kentucky Research Foundation, priority 2008, published 2010).

Key:
[1] = tested on: formalin-induced flinching; experiment: rat model of tonic inflammatory pain (the formalin test); type: in vivo; details: intraperitoneal, 3.6-3600 μg/kg, 15 minutes prior to formalin, phase 1 and 2, FIGS. 1 and 2
Description: A rat model of tonic inflammatory pain (the formalin test) was used in this study (Wheeler-Aceto and Cowan, 1991). Fifty μl of formalin (5%) was injected subcutaneously (SC) into the dorsal surface of the left hind paw. This procedure typically produces a biphasic behavioral response consisting of flinching, lifting and licking. The first phase (0-10 minutes) results from direct stimulation of nociceptors (nociceptive pain) whereas the second phase (20-60 minutes) is thought to involve central sensitization. Rats (3/dose) were pretreated 15 minutes prior to formalin (SC) injection with ZZ-204G (3.6-3600 μg/kg) administered by the IP route. ZZ-204G is as below:
Saline served as control. Incidences of formalin-induced flinching were counted continuously in 5 minute intervals for 60 minutes. Each rat received only one treatment.

[2] = tested on: mechanical hyperalgesia in CCI rats; experiment: rat chronic constriction nerve injury (CCI) model of neuropathic pain, paw pressure test; type: in vivo; details: intraperitoneal, 3.6-3600 μg/kg, 15-120 minutes after injection, FIGS. 3 and 4
Description: A rat model of neuropathic pain (the chronic constriction nerve injury model; CCI) was used. Unilateral peripheral mononeuropathy was produced on the left hind limb according to the method described by Bennett and Xie (1988). Under pentobarbital anesthesia (40 mg/kg, IP) ligation of the siatic nerve and sham surgery were performed in each rat on the left and right hind paws, respectively. Proximal to the sciatice trifurcation, the nerve (about 7 mm) was freed from adhering tissue and four loose ligatures were tied around the nerve (1 mm apart) using 4.0 chromic catgut, barely constricting the diameter of the nerve. In sham surgery, the right sciatic nerve was exposed using the same procedure, but the nerve was not ligated. The incision was closed in layers with silk thread 3.0. […] No severe motor impairment was observed.
The presence of a decreased threshold to mechanical noxious stimuli (mechanical hyperalgesia) was evaluated by the Randal and Selitto (1957) method (paw pressure test) in CCI rats. The hind paw was placed between a flat surface and a blunt pointer in the Basile Analgesimeter (UGO Basile, Italy) and increasing pressure (32 g/s) was applied to the dorsal side of the paw. Vocalization was used as the end point (vocalization threshold, VT, g). […] Responses were assessed prior to (baseline, taken twice) and at 15, 30, 45, 60 and 120 minutes after injection. […]

Question: What does the source list for `C(#Cc1cc(C#CCCC[n+]2cccc(-c3ccccc3)c2)c(C#CCCC[n+]2cccc(-c3ccccc3)c2)cc1C#CCCC[n+]1cccc(-c2ccccc2)c1)CCC[n+]1cccc(-c2ccccc2)c1.[Br-].[Br-].[Br-].[Br-]` [ZZ-204G]?
Answer: analgesic effect in the rodent formalin tonic inflammatory pain model (formalin-induced flinching) [1]: analgesic effect; antihyperalgesic effect in the rodent chronic constriction nerve injury model (vocalization threshold, paw pressure test) [2]: antihyperalgesic effect
